Experimental data from patent publication US20250049032A1, “ETHYLENE SIGNALING ACTIVATOR MODULATES ROOT SYSTEM ARCHITECTURE” (Salk Institute for Biological Studies, priority 2021, published 2025).
“Also recorded” adds a separate entry of the source. Blank lines part the entries; values can stand above or below the compound they belong to.

Columns and labels:
[1] = test system: Ethylene Response Factor1 (ERF1); assay: Expression of ethylene response marker gene ERF1; assay type: in vivo, Arabidopsis thaliana; details: root tissue, 2 hours, 10 μM MBZ or ACC (50 μM per legend)
[2] = test system: etiolated Arabidopsis seedlings; assay: Triple response of etiolated seedlings; assay type: in vivo, Arabidopsis thaliana; details: for triple response in etr1-3: 4-days-old etiolated etr1-3 seedlings, 2.5 μM MBZ or 10 μM ACC
[3] = test system: root cells of etiolated seedlings; assay: Root cell size by confocal microscopy (PI staining); assay type: in vivo, Arabidopsis thaliana; details: 4-day-old etiolated seedlings, 2.5 μM MBZ or 10 μM ACC
Description: (§1) LaserMicroscopy. A Zeiss 710 confocal microscope with 20×, 40×, and 63× objectives were used to detect GFP and propidium iodide (PI) fluorescence. A Keyence BZ-X810 microscope with a 20× objective was used to detect bright field images and GFP fluorescence in FIG. 3B, FIG. 8B right panel, FIG. 9C, FIG. 9F.

EIN3 = assay: 35S-EIN3-GFP protein level in ein3eil1 background; assay type: in vivo, Arabidopsis thaliana; details: 2 hours, 10 μM MBZ or 50 μM ACC
Description: as §1

[4] = test system: etiolated Col-0 seedlings; assay: Measurement of ethylene production by GC-MS; assay type: in vivo, Arabidopsis thaliana; details: 3-days-old etiolated Col-0 seedlings, 10 μM
Procedure: Measurement of ethylene production. […] These vials were incubated at 22° C. for 3 days under dark environment. 500-1000 μL sample of the headspace gas was sampled with an autosampler (TriPlus RSH, Thermo Scientific) and injected into a gas chromatograph (Trace 1310 GC, Thermo Scientific) that was equipped with a HP-PLOTQ column ([…], 320 μm, 20 μm) and a mass spectrometer (TSQ8000 Evo MS, Thermo Scientific), scanning from 25-27.5 m/z. Separations were carried out at 35° C. using He as the carrier gas. The area of the ethylene peak (RT: 4 min) was integrated using Thermo Xcalibur Qual Browser. A calibration curve was generated by varying the injection volume (100 μL, 250 μL, 500 μL, and 1000 μL) of a 10 ppm ethylene standard (in nitrogen), and sample results are expressed as concentrations calculated from linear regression of calibration samples.

[5] = test system: Arabidopsis thaliana roots; details: for root elongation / root hair growth: 8-day-old seedlings, 1 μM MBZ or 10 nM IAA plates
microtubules (TUB6-GFP) = assay: Microtubule orientation in root tips of TUB6-GFP seedlings; assay type: in vivo, Arabidopsis thaliana; details: 1 μM IAA or 50 μM MBZ
Description: as §1

hsMAPK14 = hsMAPK14 (Homo sapiens, UniProt Q16539); details: mammalian systems, Ariey-Bonnet et al., 2020; cited from earlier work
ARR5 = assay: Expression of immediate-early cytokinin target gene ARR5; assay type: in vivo, Arabidopsis thaliana; details: 10 μM MBZ, 3 h, 6 h or 12 hours
[6] = test system: IAA1, IAA29, GH3.2, GH3.3, and MAKR4; assay: Expression of marker genes of auxin signaling; assay type: in vivo, Arabidopsis thaliana; details: 10 μM MBZ, 2 h
MAPK4 = molecular target: T1, MAPK4 (Arabidopsis thaliana, UniProt Q39024); assay: In vitro kinase assay with non-radioactive ATP-γ-S; assay type: biochemical; details: 0, 10, 100 μM MBZ
T1 construct: 6xHis (N); made in house; host or cells: E. coli Rosetta 2 (DE3)pLysS
T1 sequence (Q39024 1-376): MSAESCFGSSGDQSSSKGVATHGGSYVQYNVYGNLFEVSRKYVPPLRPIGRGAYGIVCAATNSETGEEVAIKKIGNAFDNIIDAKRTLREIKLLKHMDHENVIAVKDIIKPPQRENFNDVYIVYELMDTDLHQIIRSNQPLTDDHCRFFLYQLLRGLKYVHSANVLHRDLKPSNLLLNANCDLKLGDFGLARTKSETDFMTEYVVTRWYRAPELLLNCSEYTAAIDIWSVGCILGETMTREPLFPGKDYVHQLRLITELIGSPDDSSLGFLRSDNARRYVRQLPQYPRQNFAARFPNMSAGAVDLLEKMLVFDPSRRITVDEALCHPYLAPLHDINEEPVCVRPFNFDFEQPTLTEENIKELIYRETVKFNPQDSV
Procedure: Protein purification. The CTR1 Kinase domain (540 aa-821 aa) (CTR1-KD) and MAPK4 were cloned into a modified pET28a with 6× His tag at their N-terminal. Proteins were expressed in Rosetta™ 2 (DE3)pLysS Competent Cells. Bacteria was cultured in 30 mL LB media containing 50 μg/mL kanamycin overnight at 37° C., 200 rpm. The culture was transferred into 1 L LB media with kanamycin. After the culture reached to 0.7 to 0.9 at OD 600 nm, 0.4 mM isopropylthiop-D-galactoside (IPTG) was added, and the culture was grown for 22 h at 20° C., 200 rpm. Cells were harvested by centrifugation at 4° C. for 10 mins at 3,000×g. The pellet was washed with 0.9% NaCl and resuspended in 40 mL lysis buffer (50 mM pH 7.5 Tris-HCl, 1 mM EDTA, 100 mM NaCl, 20% glycerol, EDTA-free protease inhibitor cocktail, 10 mM imidazole). […] Protein concentration was measured by their absorbance at 280 nm.
In vitro kinase assay with non-radioactive ATP-7-S. The in vitro kinase assay followed the previous published method ([…]). […] The phosphorylation status of MBP, CTR1-KD and MPK4 were analyzed by western blot using Recombinant Anti-Thiophosphate ester antibody (Abcam, Cat. Ab92570, 1:5000) followed by Goat Anti-Rabbit IgG (H+L)-HRP Conjugate antibody (Bio-Rad, Cat. No. 170-6515, 1:5000). The MBP, CTR1-KD and MPK4 proteins loading amounts were measured by Coomassie Blue R250 staining.

[7] = test system: Arabidopsis lateral roots; assay: Time lapse of lateral root angle phenotyping after plate transfer; assay type: in vivo, Arabidopsis thaliana
Procedure: Time lapse of lateral root angle phenotyping. […] Root phenotype images of these plates were acquired by CCD vertical scanners (EPSON Perfection V600 Photo, Seiko Epson CO., Nagano, Japan) every 10 mins over a period of 24 hours using the tool described (Ogura et al., 2022). Root length and lateral root angles were measured using Fiji.

Arabidopsis roots [8] = assay: mRNA-seq of roots, differential expression and GO analysis; assay type: in vivo, Arabidopsis thaliana
Procedure: mRNA-seq analysis. 14 d old seedlings on DMSO plates were transferred to 12 MS liquid plates with DMSO or 10 μM mebedazole treatment for 4 h, root tissues were collected for RNA extraction and RNA-seq.
Read alignment and generation of counts. The TAIR10 genome file and annotation file were obtained from the Arabidopsis Information resource web site (arabidopsis.org). The An aligner, called the Splice Transcripts Alignments to Reference (STAR) version 2.7.0a^44, was used to align short reads in the FASTQ files. In order to use STAR, a STAR index was built using the following parameters:
Then, short reads in the FASTQ files were aligned and gene counts were obtained using the following STAR command:
A custom R script was used to combine counts per gene from count data produced from STAR cross all samples.
Differential expression analysis. Differential expression of genes between treatments and control was determined using the R package, edgeR (version 3.36.0) (Robinson et al., 2010). The CPM (counts per million) function from edgeR was used to normalize the counts and differentially expressed genes (DEGs) were identified using glmLRT function from edgeR.
Analysis of published Ethylene RNA-Seq. The fastq-dump utility from the Short Read Archive (SRA) Toolkit (v2.6.3) (github.com/ncbi/sra-tools) was used to download transcriptome libraries (SRA accession IDs: SRR648276, SRR648275, SRR648274, SRR648300, SRR648299, and SRR648298) from SRA database (ncbi.nlm.nih.gov/sra) (Leinonen et al., 2011). The color space sequencing data were converted to base-space sequencing data using Perl script ‘csfq2fq.pl’ (gist.github.com/pcantalupo/9c30709fe802c96ea2b3). The converted FASTQ files were aligned and analyzed using above methods.
Statistical analysis. A two-sided Student's t-test was used for comparisons of two conditions. The comparison of meristem length, mature cell length, root length, GSA between multiple treatments or genotypes was performed by One-way ANOVA and post hoc Tukey testing. Detailed information was prepared in figure legends. Statistical significance of overlap between DEGs from MBZ treatment and ethylene treatment was assessed by hypergeometric distribution test. Hypergeometric test function in R was used to calculate statistical significance: • $ phyper(q−1, m, n-m, k, lower.tail=FALSE, log.p=FALSE) • q=the number of genes in common between two sets • m=the number of genes in Set 1; • n=the total number of genes in RNA-Seq counts table (33,602) • k=the number of genes in Set 2

DR5-GFP V2 = DR5-GFP V2 auxin response reporter in roots; assay type: in vivo, Arabidopsis thaliana
Description: as §1

Arabidopsis roots [9] = details: 4 hours of ethylene treatment; cited from earlier work
[10] = 1 μM MBZ, one week after germination

hsMAPK14, sequence (Q16539 whole entry): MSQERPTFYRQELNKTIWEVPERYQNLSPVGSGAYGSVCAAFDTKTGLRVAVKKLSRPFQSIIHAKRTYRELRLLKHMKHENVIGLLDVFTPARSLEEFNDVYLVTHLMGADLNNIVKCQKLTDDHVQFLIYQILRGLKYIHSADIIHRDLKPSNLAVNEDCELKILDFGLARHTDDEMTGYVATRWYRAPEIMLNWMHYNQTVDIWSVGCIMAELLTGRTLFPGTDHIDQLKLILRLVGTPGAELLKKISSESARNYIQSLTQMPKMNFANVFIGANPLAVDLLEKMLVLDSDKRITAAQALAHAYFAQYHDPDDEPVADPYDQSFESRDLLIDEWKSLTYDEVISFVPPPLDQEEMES

SMILES: NC1(C(=O)O)CC1 [ACC, 1-aminocy-clopropane-1-carboxylic acid]
- transcript level of ERF [1]: strongly induced
- triple response in etr1-3 [2]: completely insensitive
- mature cell size [3]: reduced
- 35S-EIN3-GFP protein level (EIN3): dramatically induced
- ethylene production [4]: dramatically induced
- effect on root angle ([5]; ACC at certain concentrations (0.1-10 μM range)): weak but distinct effect

SMILES: O=C(O)Cc1c[nH]c2ccccc12 [IAA]
- orientation of tubulin in roots within 1 h (microtubules (TUB6-GFP)): significantly changed
- root elongation [5]: inhibited
- root hair growth [5]: enhanced

- effect on MAPK4 kinase activity compared to CTR1 (MAPK4): much less pronounced
- kinase activity of MPK4 (MAPK4; concentration dependent): inhibited
SMILES: COC(=O)Nc1nc2ccc(C(=O)c3ccccc3)cc2[nH]1 [MBZ, Mebendazole]
- activity on hsMAPK14 (hsMAPK14): inhibitor
- ARR5 expression (ARR5): did not respond
- transcript level of ERF [1]: strongly induced
- triple response phenotype ([2]; 3-day-old etiolated seedlings, 10 μM MBZ): significant triple response phenotype
- triple response in etr1-3 [2]: showed the typical triple response phenotype
- triple response in ethylene insensitive mutants ein2-5 and ein3eil1 ([2]; MBZ (2.5 μM), etiolated seedlings): abolished; also recorded: didn't show a triple response
- concentration sufficient to induce the triple response phenotype ([2]; dark environment): 2.5 µM
- expression of marker genes of auxin signaling [6]: did not show any significant change
- reversibility of effect on lateral root angles ([7]; 1 μM MBZ, removal): fully reversible
- time to change of GSA in time-lapse experiment ([7]; MBZ treatment): one to four
- time until lateral root tips grow at a distinctly steeper angle upon removal from MBZ ([7]; transfer from 1 μM MBZ back to control conditions, 5 lateral root tips): four
- time until lateral root tips grow at a more horizontal angle ([7]; transfer from DMSO to 1 μM MBZ medium, five lateral root tips): three
- mature cell size [3]: reduced
- 35S-EIN3-GFP protein level (EIN3): dramatically induced
- GO enrichment of ethylene-activated signaling pathway (GO:0009873) (Arabidopsis roots [8]; 10 μM MBZ, 4 hours): 10.83 fold enrichment
- GO enrichment of negative regulation of ethylene-activated signaling pathway (GO:0010105) (Arabidopsis roots [8]; 10 μM MBZ, 4 hours): 21.03 fold enrichment
- number of differentially expressed genes (DEGs) (Arabidopsis roots [8]; 4 hours of MBZ treatment): 1335 genes
- DEGs overlapping with DEGs of 4 hours ethylene treatment (Arabidopsis roots [8]; 4 hours of MBZ treatment vs published ethylene data): 306 genes
- common DEGs retaining directionality of expression change (Arabidopsis roots [8]; MBZ vs ethylene, 4 h): More than 90%
- ethylene production [4]: not detected
- decreased root length (in average reduced by) [5, 10]: 37%
- root hair initiation and elongation [5, 10]: increased
- root length of ein2-5 and ein3eil1 mutant plants ([5]; 1.2 μM MBZ): clearly not affected
- root phenotype of Col-0 ([5]; 1.2 μM MBZ): short roots and increased root hair development
- response of etr1-1 and etr1-3 ethylene receptor mutants (root length, GSA) ([5]; 1.2 μM MBZ plates): strongly responded
- lateral root angles of ctr1-1, ein2-5, and ein3eil1 plants ([5]; 2 to 3-weeks-old plants, 1.3 μM MBZ): insensitive
- root elongation [5]: inhibited
- root hair growth [5]: enhanced
- lateral root angle ([5]; MBZ treatment): distinctly increased
- plant growth and development ([5]; in vivo): strongly inhibited plant growth and development
- lateral root gravitropic setpoint angle (GSA) ([5]; two-week-old seedlings grown on 1 μM MBZ plates): approx. 70 °
- DR5-GFP V2 expression within 3 hours compared to mock (DR5-GFP V2; 10 μM MBZ, 3 h): no increased
- DR5-GFP V2 expression, long-term treatment (DR5-GFP V2; 7-day-old roots grown on 1 μM MBZ plates): induced

SMILES: C=C [ethylene]
- number of DEGs upon ethylene treatment (published data) (Arabidopsis roots [9]): 1397 genes
